Source: publication PMC10825133, “Repurposing proteasome inhibitors for improved treatment of triple-negative breast cancer” (Cell Death Discovery, 2024)
Where two headings read alike, the source gives them in different places.

How the values were obtained:
[1] = test system: CAL-148 cells; assay: Combination therapy, resazurin viability, SynergyFinder; assay type: cell-based, human; conditions: Homo sapiens
Method: (§1) Eighteen pharmaceutical compounds were purchased from Selleckchem (Supplementary Table 2). Stock solutions were prepared using dimethyl sulfoxide (DMSO; Merck), physiological saline (sodium chloride 0.9%) or Milli-Q water, and stored at −80 °C. […] Matched concentration solvent vehicle controls were used for each drug concentration. The drug screens were performed in triplicate and repeated three (monotherapy) or two (combination therapy) times (Fig. 7).
(§2) The optimal seeding density per 96-well was determined for each cell line as previously described. The cells were seeded at a density of 4.0 × 10^3 to 7.5 × 10^3 (cell type dependent) in 96-well clear, flat-bottom microplates (Corning Life Sciences, Sigma-Aldrich) in 100 µl complete culture medium (Supplementary Table 1) and cultured for 24 h. Cell viability was determined using the resazurin assay in untreated cells at the time of plating (t = 0) and treated cells after 24 h drug treatment (Fig. 7). Percentage cell viability was calculated as 100% × (absorbance of treated cells – absorbance of background controls) / (absorbance of matched solvent vehicle controls – absorbance of background controls). The area under the curve (AUC), half-maximal inhibitory concentration (IC50), drug potency (GR50), and drug efficacy (GRmax) were determined for each compound using the GRmetrics (version 1.20.0) package in R. The monotherapy data were evaluated with the IDACombo (version 1.0.2) package in R to predict potential drug combinations (Table 1). SynergyFinder (version 3.2.10) package in R was used to identify synergistic drug combinations.
(§3) Eighteen pharmaceutical compounds were purchased from Selleckchem. […] The solubility of the compound was enhanced by pre-heating the solvent (lukewarm), if necessary. […] The stock solutions were stored at -80°C. […] Matched concentration solvent vehicle controls were used for each drug concentration. The drug screens were performed in triplicate and repeated three times for the monotherapies and twice for the combination treatments. The drug(s) and corresponding controls were plated in 96-well PCR plates (VWR) and stored at -20°C (Fig. 6). The drug plates were thawed, centrifuged (3000 rpm for 30s), and acclimatized to RT before the drugs were added to the cells. New drug plates were prepared for each drug screen.
(§4) The cells were seeded at a density of 4.0x10^3 to 7.5x10^3 (cell type-dependent) in 96-well clear, flat-bottom microplates (Corning Life Sciences, Sigma-Aldrich) in 100 µl culture medium supplemented with 10% FBS and cultured for 24h. Cell viability was determined using the resazurin assay after 24h drug treatment (Fig. 6). Percentage cell viability was calculated as 100% × (absorbance of treated cells – absorbance of background controls) / (absorbance of matched solvent vehicle controls – absorbance of background controls). Normalized growth rate inhibition (GR) was assessed using the absorbance of untreated cells after the time of plating (t = 0). […] For combination treatment, the monotherapy data were evaluated with the IDACombo (version 1.0.2)[20] package in R to predict potential drug combinations (Table 1). SynergyFinder (version 3.2.10)[21] package in R was used to identify synergistic drug combinations.

[2] = molecular target: T1, β5 catalytic site of the 20 S proteasome (Homo sapiens, UniProt P28074); assay: Proteasome activity of the β5 catalytic site in MCF-7 cells (Suc-Leu-Leu-Val-Tyr-AMC substrate); assay type: cell-based; conditions: MCF7, MCF-7 cells treated 6 h; for inhibition at 1 µM: 1000 nM; for inhibition at 10 µM: 10000 nM, read-out: inhibition of β5 activity
T1 construct: endogenous in cells; host or cells: MCF-7
Method: Proteasome activity of the β5 catalytic site was determined for the PIs using a Suc-Leu-Leu-Val-Tyr-AMC fluorescent proteasome substrate (Enzo Life Sciences, Cat. BML-P802) at a final concentration of 20 µM. MCF-7 cells were seeded at 7.5 × 10^3 cells/well in black 96-well flat-bottom microplates (Nuclon™ Delta Surface, ThermoFisher Scientific) with 100 µl culture medium supplemented with 10% FBS. After 24 h, the cells were treated for 6 h with the 11 PIs at 1, 10, 100, and 1000 nM and matched untreated controls.

[3] = test system: HCC38 cells; assay: Resazurin-based cell viability assay, monotherapy drug screen; set-up: species or system human; AUC: scale not given here; conditions: HCC38; for AUC: area under the dose response curve, 24 h; for GRmax: drug efficacy at highest tested dose (<0 cytotoxic, 0 cytostatic, >0 partial growth inhibition); for IC50: Homo sapiens
Summary of the method: (§5)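 Cells were seeded at the highest density (tested 1000-16000 cells/well) giving linear growth between days 1 and 3, keeping them in exponential phase over the ~52 h experiment. Viability was read after 4 h at 37 °C with 0.2 mg/ml resazurin added at 10% of medium volume; ex 560/em 615 nm.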

[4] = test system: MDA-MB-453 cells; assay: as above; set-up: species or system human; AUC: scale not given here; conditions: MDA-MB-453; for IC50: Homo sapiens, growth rate inhibition concentration at GR(c) = 0.5, 24 h, read-out: GR50 (the source's name); for AUC: area under the dose response curve, 24 h
Summary of the method: as §5

[5] = test system: control cell lines (MCF-10A and MCF-7); assay: Monotherapy drug screen, mean across the controls; assay type: cell-based, human; conditions: for IC50: Homo sapiens, 24 h drug treatment, read-out: GR50 (mean ± SD)
Method: as §1, §2, §3, §4

[6] = test system: eight TNBC cell lines and two controls (MCF-10A and MCF-7); assay: Monotherapy drug screen, all investigated cell lines; assay type: cell-based, human; conditions: for drug potency classification, below the threshold: GR50 and AUC both below the threshold; for drug potency classification: metrics GR50 < 1.0 µM and AUC < 0.80
Method: as §1, §2, §3, §4

[7] = 24 h drug treatment, read-out: IC50
[8] = growth rate inhibition concentration at GR(c) = 0.5, 24 h, read-out: GR50 (the source's name)

Row | Compound | inhibition at 0.01 µM ([1]; bortezomib 10 nM alone) [%] | inhibition at 0.078 µM ([1]; bortezomib 78 nM alone) [%] | inhibition at 0.625 µM ([1]; bortezomib 625 nM alone) [%] | inhibition at 5 µM ([1]; bortezomib 5000 nM alone) [%] | inhibition at 1 µM [2] [%] | inhibition at 10 µM [2] [%] | AUC [3] | GRmax [3] | IC50 [3, 7] [µM] | IC50 [3, 8] [µM] | IC50 [4] [µM] | AUC [4] | area under the dose response curve (AUC), mean ± SD ([5]; 24 h) | IC50 [5] [µM] | drug potency classification, below the threshold [6] | drug potency classification [6]
1 | CC(C)C[C@H](NC(=O)[C@H](Cc1ccccc1)NC(=O)c1cnccn1)B(O)O [Bortezomib] | 12.5 | 62.8 | 55.1 | 55.6 | 95 | 100 | 0.40 | −0.99 | 0.024 | 0.01 | 0.063 | 0.75 | 0.69 ± 0.10 | 0.021 ± 0.0097 | highly potent drugs | potent drugs
2 | CC(C)C[C@H](NC(=O)[C@@H](NC(=O)c1cccc(-c2ccccc2)n1)[C@@H](C)O)B(O)O [Delanzomib] |  |  |  |  | 55 | 100 | 0.42 | −0.97 | 0.012 | 0.0082 | 0.027 | 0.76 |  | 0.024 ± 0.013 | highly potent drugs | potent drugs
